Laboratory results taken from patent US4530932A, “4-(1H-indol-3-yl)-α-methyl-piperidine-1-ethanol derivatives” (Roussel Uclaf, priority 1982, dated 1985).
Where a name gives a salt, the structure may show the parent alone. Read-outs that look alike come from different tables or passages of the source.

Legend:
[1] = system: Rat arteries (arterial contractions, entry of calcium ions into the cells of smooth muscles); assay: In vitro anticalcic activity (inhibition of potassium-depolarized, calcium-induced contractions of isolated rat arteries); type: cell-based; conditions: dose inhibiting by 50% the contractions caused by potassium ions (100 mM), 37° C., read-out: CI50 (the source's name)
Method: Rat arteries decoupled in a spiral were attached to a tension collector and were maintained in tanks containing 2.5 ml of Krebs-sodium bicarbonate buffer (NaCl: 120.8 mM, KCl: 5.9 mM, MgCl2 : 1.2 mM, NaH2 PO4 : 1.2 mM, NaHCO3 : 15.5 mM, glucose: 12.6 mM), at 37° C. covered with a 95%-5% oxygen-carbon dioxide mixture. The preparations were depolarized with a buffered solution containing 100 mM of potassium ions (NaCl: 26.7 mM, KCl: 100 mM, MgCl2 : 1.2 mM, NaH2 PO4 : 1.2 mM, NaHCO3 : 15.5 mM, glucose 12.6 mM).
A volume of 25 μl of calcium chloride was added to the mixture in a manner to obtain a range of increasing concentrations of calcium ions from 0.1 to 3.0 mM and the contractions of the artery were measured to obtain a control. The operation with range of calcium ions was repeated every 15 minutes and the preparation was washed 4 times after each range. When a stable response was obtained, the operation with the range of calcium ions was effected in the presence of varying concentrations of test compounds until a stable response was obtained.
The arterial contractions depend on the entry of calcium ions into the cells of smooth muscles and are provoked by depolarization of smooth muscles by potassium ions and by action of noradrenaline freed by presynapthic level. By recommencing the operation with denerved arteries by the action of 6-hydroxy-dopamine, the specific action due to noradrenaline is suppressed.

[2] = system: cardiac rhythm troubles in guinea pigs; assay: Antiarythmic action (K-strophanthine and adrenaline induced cardiac rhythm troubles); type: in vivo, guinea pig; conditions: Cavia porcellus, 1 h, oral 10 mg/kg, one hour before K-strophanthine and adrenaline perfusion, read-out: Percentage of protection (lengthening of the time of appearance of cardiac rhythm troubles as compared to controls)
Method: Male guinea pigs weighing between 450 and 500 g were tracheotomized while anesthesized by intraperitoneal administration of […] of urethane and were subjected to artifical respiration of 40 to 50 breaths of 5 ml per minute. Needles were subcutaneously implanted to register an electrocardiogram of the guinea pigs for the signal of D II derivation. The test products were orally administered and one hour later, the jugular vein of the guinea pigs were perfused with 0.5 ml per minute of a solution of 150 γ/ml of K-strophanthine and 0.5 ml per minute of a solution of 5 γ/ml of adrenaline and the number of times of the appearance of cardiac rhythm troubles was noted. The results are expressed in percentage of protection with an oral dose of 10 mg/kg of test product that is to say the percentage of lengthening of the time of appearance of cardiac rhythm troubles as compared to the controls.

[3] = system: carotidien arterial pressure in rats; assay: Hypotensive activity (carotidien arterial pressure in anesthesized rats); type: in vivo, rat (Wistar); conditions: rat, intravenous
Method: The hypotensive activity was studied on male rats of the Wistar strain weighing about 300 g and anesthesized with 50 mg/kg of nembutal intraveinously. The test products were administered intraveinously by the jugular vein and the carotidien arterial pressure was measured before and after administration of the test compounds. The variations expressed in percentage of arterial pressure after administration with respect to the initial pressure is reported in Table IV.

α1 adrenergic receptors = assay: Affinity for α1 adrenergic receptors (3H prazosine displacement, rat brain); type: binding; conditions: relative to phentolamine (ARL=100×(CB/CX)), 25° C., pH 7.7
Method: After centrifugation at 30,000 g for 15 minutes at 0° to 4° C., the culot was suspended in 240 ml of buffer Tris HCl 50 mM (pH-7.7) and the suspension was centrifuged at 30,000 g for 20 minutes at 0° to 4° C. The new culot was suspended in 480 ml of buffer Krebs Tris HCl (pH of 7.7-50 mM) and 2 ml of the suspension in the presence of 3H prazosine at a concentration of […] alone and with increasing concentrations of the test compound or with non-radioactive phentolamine at a concentration of 10^-5 M to determine the non-specific fixation was incubated at 25° C. for 30 minutes.
The incubated suspensions were filtered through Whatman FG/C and the filtered were washed with 3 times with 5 ml of buffer Krebs Tris HCl-pH of 7.7 at 0° to 4° C. The radioactivity of the filters was measured by liquid scintillation and the affinity of the test compound for α1 adrenergic receptors was compared relative to phentolamine as the reference compound by the formula
CD=concentration of phentolamine inhibiting by 50% the specific fixation of 3H prazosine.
CX=concentration of test product inhibiting by 50% the specific fixation of 3H prazosine.

β1 adrenergic receptors = target: T1, β1 adrenergic receptors (Rattus norvegicus, UniProt P18090); assay: Affinity for β1 adrenergic receptors (3H dihydroalprenolol displacement, rat brain cortex); type: binding; conditions: relative to propranolol, 37° C., pH 7.7
T1 construct: 10 cortexes removed from the brains of male rats weighing an average of 150 g; from tissue; host or cells: cerebral cortex of male rats (membranes)
Method: The test was inspired by that of Mohler et al [Science, Vol. 198 (1977), p. 849-851] and 10 cortexes removed from the brains of male rats weighing an average of 150 g were homogenized in 90 ml of 0.32M of sucrose. After centrifuging the homogenized mixture at 1000 g for 20 minutes at 0° C., the surnageant was centrifuged at 30,000 g for 15 minutes at 0° to 4° C. The culot was suspended in 120 ml of buffer Tris HCl 50 mM with a pH of 7.7 and was centrifuged at 30,000 g for 15 minutes at 0° to 4° C. The resulting culot was suspended in 480 ml of buffer Krebs Tris HCl (50 mM-pH of 7.7) and 2 ml of the suspension in the presence of 3H dihydroalprenolol at a concentration of 10^-9 M alone and with increasing concentrations of the test compound or with non-radioactive propranolol at a concentration of 10^-5 M to determine the non-specific fixation was incubated at 37° C. for 10 minutes.
The incubated suspensions were filtered through Whatman GF/C and the filters were washed 3 times with 5 ml of buffer Krebs Tris HCl (pH-7.7) at 0° C. The radioactivity of the filters was measured by liquid scintillation and the affinity of the test compounds for β1 -adrenergic receptors was compared using propranolol as a standard as in Test D. The results are reported in Table VI.

β2 -adrenergic receptors = target: T2, β2 -adrenergic receptors (Rattus norvegicus, UniProt P10608); assay: Affinity for β2 adrenergic receptors (3H dihydroalprenolol displacement, rat cerebellum); type: binding; conditions: relative to propranolol, 37° C., pH 7.7
T2 construct: cerebellums of male rats weighing an average of 150 g; from tissue; host or cells: cerebellum of male rats (membranes)
Method: The technique was inspired by that of Mohler et al [Science, Vol. 198 (1977), p. 849-851] and the cerebellums of male rats weighing an average of 150 g were homogenized in 90 ml of 0.32M sucrose. After centrifugation of the homogenized mixture at 1000 g for 20 minutes at 0° C., the surnageant was centrifuged at 30,000 g for 15 minutes at 0° to 4° C. The culot was suspended in 120 ml of buffer Tris HCl (50 mM-pH of 7.7) and the suspension was centrifuged at 30,000 g for 15 minutes at 0° to 4° C. The resulting culot was suspended in 480 ml of buffer Krebs Tris HCl with a pH of 7.7 and 2 ml of the suspension was incubated at 37° C. for 10 minutes in the presence of 3H dihydroalprenolol at a concentration of 10^-9 M alone and with increasing concentrations of the test compound or with 10^-5 M of non-radioactive propranolol to determine the non-specific fixation.
The incubated suspensions were filtered through Whatman FG/C filter and the filters were rinsed 3 times with 5 ml of buffer Krebs Tris HCl with a pH of 7.7 at 0° C. The radioactivity of the filters was measured by liquid scintillation and the affinity of the test compounds for β2 -adrenergic receptors relative to propranolol as a standard was determined similar as to Test D. The results are reported in Table VII.

mice = assay: Acute toxicity (DL0, oral); type: in vivo, mouse; parameters: unit not given here
[4] = 1 min, 1 minute, read-out: % Variation of arterial pressure after administration, 1 minute
[5] = 5 min, 5 minutes, read-out: % Variation of arterial pressure after administration, 5 minutes
[6] = 10 min, 10 minutes, read-out: % Variation of arterial pressure after administration, 10 minutes
[7] = 0.5 h, 30 minutes, read-out: % Variation of arterial pressure after administration, 30 minutes

T1 sequence (P18090 whole entry): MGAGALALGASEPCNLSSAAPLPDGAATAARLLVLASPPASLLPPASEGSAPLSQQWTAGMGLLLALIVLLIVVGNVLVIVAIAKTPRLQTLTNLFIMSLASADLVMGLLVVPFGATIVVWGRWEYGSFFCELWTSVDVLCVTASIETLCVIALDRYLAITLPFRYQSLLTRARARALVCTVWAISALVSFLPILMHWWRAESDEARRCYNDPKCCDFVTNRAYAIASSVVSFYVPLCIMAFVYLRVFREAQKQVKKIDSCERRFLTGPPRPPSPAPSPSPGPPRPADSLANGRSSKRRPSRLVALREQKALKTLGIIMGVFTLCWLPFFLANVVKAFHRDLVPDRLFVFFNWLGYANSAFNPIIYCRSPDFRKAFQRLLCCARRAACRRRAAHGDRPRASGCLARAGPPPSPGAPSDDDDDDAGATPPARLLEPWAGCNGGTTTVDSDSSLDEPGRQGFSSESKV
T2 sequence (P10608 whole entry): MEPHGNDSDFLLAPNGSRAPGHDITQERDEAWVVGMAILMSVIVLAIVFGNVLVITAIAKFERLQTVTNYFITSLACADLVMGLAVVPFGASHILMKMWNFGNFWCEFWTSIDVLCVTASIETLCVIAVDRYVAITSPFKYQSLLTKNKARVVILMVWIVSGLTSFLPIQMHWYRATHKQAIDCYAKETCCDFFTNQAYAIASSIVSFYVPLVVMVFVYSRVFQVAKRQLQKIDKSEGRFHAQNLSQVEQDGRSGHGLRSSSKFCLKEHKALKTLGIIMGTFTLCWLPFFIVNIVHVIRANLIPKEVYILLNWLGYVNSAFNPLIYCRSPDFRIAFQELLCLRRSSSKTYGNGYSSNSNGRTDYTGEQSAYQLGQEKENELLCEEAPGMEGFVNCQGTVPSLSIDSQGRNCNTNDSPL

| SMILES | IC50 [1] [µM] | change in vivo at 10 mg/kg [2] [%] | change in vivo at 1 mg/kg [3, 4] [%] | change in vivo at 1 mg/kg [3, 5] [%] | change in vivo at 1 mg/kg [3, 6] [%] | change in vivo at 1 mg/kg [3, 7] [%] | % Arl (relative affinity for α1 adrenergic receptors) (α1 adrenergic receptors) [%] | ARL in % (relative affinity for β1 adrenergic receptors) (β1 adrenergic receptors) [%] | ARL in % (relative affinity for β2 adrenergic receptors) (β2 -adrenergic receptors) [%] | DL0 (maximum dose which did not cause any deaths after 8 days) (mice) |
| --- | --- | --- | --- | --- | --- | --- | --- | --- | --- | --- |
| CC(=O)c1ccccc1OCC(O)CN1CCC(c2c[nH]c3ccccc23)CC1 (stereo not drawn) [Example 17, 4-(1H--indol-3-yl)-α-[2-(acetyl-phenoxymethyl]-piperidine-1-ethanol hydrochloride] | 6 | 142 | -17 | -5 | -18 | -6 | 159 | 1.2 | 3.3 | > 100 |
| C#CCc1ccccc1OCC(O)CN1CCC(c2c[nH]c3ccccc23)CC1 (stereo not drawn) [Example 16, 4-(1H--indol-3-yl)-α-[2-(prop-2-ynyl)-phenoxymethyl]-piperidine-1-ethanol hydrochloride] | 1.6 | 71 | – | – | – | – | 321 | 5.8 | 11 | > 100 |
| COC(=O)c1ccccc1OCC(O)CN1CCC(c2c[nH]c3ccccc23)CC1 (stereo not drawn) [Example 6, 4-(1H--indol-3-yl)-α-[2-methoxycarbonyl-phenoxymethyl]-piperidine-1-ethanol hydrochloride] | 3 | 37 | -21 | -13 | -13 | 0 | 253 | 1.3 | 3.5 | 80 |
| OC(COc1ccccc1C1CCCCC1)CN1CCC(c2c[nH]c3ccccc23)CC1 (stereo not drawn) [Example 15, 4-(1H--indol-3-yl)-α-[2-cyclohexyl-phenoxymethyl]-piperidine-1-ethanol hydrochloride] | 5 | – | – | – | – | – | – | – | 5.4 | > 100 |
| N#Cc1ccccc1OCC(O)CN1CCC(c2c[nH]c3ccccc23)CC1 (stereo not drawn) [Example 4, 4-(1H--indol-3-yl)-α-[2-cyanophenoxymethyl]-piperidine-1-ethanol hydrochloride] | 3.5 | 148 | -24 | -21 | -22 | -26 | 145 | 13.3 | 1.1 | > 100 |
| C=CCOc1ccccc1OCC(O)CN1CCC(c2c[nH]c3ccccc23)CC1 (stereo not drawn) [Example 1, 4-(1H-indol-3-yl)-α-[{2-(prop-2-enyloxy)-phenoxy}-methyl]-piperidine-1-ethanol hydrochloride] | 4 | 63 | – | – | – | – | 247 | 7.3 | 10.5 | 100 |
| C=CCc1ccccc1OCC(O)CN1CCC(c2c[nH]c3ccccc23)CC1 (stereo not drawn) [Example 7, 4-(1H--indol-3-yl)-α-[2-prop-2-enyl)-phenoxymethyl]-piperidine-1-ethanol hydrochloride] | 0.32 | 50 | – | – | – | – | 100 | 3.7 | 10 | > 200 |
